{"source": "patent US20230398146A1", "about": "“IMMUNE MODULATION OF MYELOID DERIVED SUPPRESSIVE CELL FUNCTION FOR CANCER TREATMENT” (SURGE Therapeutics, Inc., priority 2020, published 2023)", "test_system": "4T1-Luc2 cells", "assay": "Survival of mice after resection of orthotopic 4T1-Luc2 breast tumors, composition administered at the tumor resection site", "assay_type": "in vivo, mouse", "method": "In some embodiments, an animal model of cancer can be used to identify and/or characterize composition comprising a polymeric biomaterial and a modulator of myeloid-derived suppressive cells. For example, a tumor resection is performed on a tumor-bearing mouse, and a composition described herein, e.g., composition comprising a polymeric biomaterial and a modulator of myeloid-derived suppressive cells is administered to the tumor resection site. The survival of treated subjects is then monitored. In some embodiments, a composition comprising a polymeric biomaterial and a modulator of myeloid-derived suppressive cells is considered and/or determined to be useful in accordance with the present disclosure when it is characterized, in that when tested in vivo as described in the present Example, it extends survival of a treated subject, e.g., by at least 1 week, at least 2 weeks, at least 3 weeks, at least 4 weeks, at least 2 months, at least 3 months, at least 4 months, at least 5 months, at least 6 months, or longer, as compared to that observed in a control reference (e.g., a control in which a composition comprising a polymeric biomaterial and a modulator of myeloid-derived suppressive cells is not administered. For example, in some embodiments, a control reference may be administration of a polymeric biomaterial in the absence of a modulator of myeloid-derived suppressive cell function. In some embodiments, a control reference may be administration of a modulator of myeloid-derived suppressive cell function in solution. Alternatively, in some embodiments, a provided composition comprising a biomaterial preparation and a modulator of myeloid-derived suppressive cells is considered and/or determined to be useful for treatment of cancer (including, e.g., prevention or reduction in the likelihood of tumor relapse or metastasis) in accordance with the present disclosure when such a composition, after administration at a tumor resection site, reduces incidence of tumor recurrence and/or metastasis after the tumor resection (e.g., at least 1 month after tumor resection when the test subject is a mouse subject, or at least 3 months after tumor resection when the test subject is a human subject), for example, by at least 10% or more (comprising, e.g., at least 20%, at least 30%, at least 40%, at least 50%, at least 60%, at least 70%, at least 80%, at least 90%, or more) as compared to that observed in a control reference (e.g., as described above).\nIn some embodiments, female BALB/cJ mice are inoculated orthotopically with 100,000 breast cancer cells (e.g., 4T1-Luc2 cells). Ten days later, tumors are surgically resected, and either (i) a composition described herein, e.g., a composition comprising a polymeric biomaterial and a modulator of myeloid-derived suppressive cells, (ii) a composition comprising a polymeric biomaterial without a modulator of myeloid-derived suppressive cells, and/or (iii) a negative control composition (e.g., a buffered solution without such a composition) is administered into the resection cavity. Animal survival can be monitored to inspect for induction of antitumor immunity. In some embodiments, to confirm that a composition comprising a polymeric biomaterial and a modulator of myeloid-derived suppressive cells functions mechanistically, for example, by modulating recruitment and/or survival and/or proliferation of myeloid-derived suppressive cells (e.g., neutrophils), animal survival may be monitored following inhibition of recruitment and/or survival and/or proliferation of myeloid-derived suppressive cells (e.g., neutrophils). In some embodiments, to confirm that an administered composition comprising a polymeric biomaterial and a modulator of myeloid-derived suppressive cells functions mechanistically by modulating myeloid-derived suppressive cell effector function, animal survival may be monitored following modulating myeloid-derived suppressive cell effector function (e.g., as described herein). […]", "key": {"[1]": {"conditions": "10% w/w poloxamer 407 + 3% w/w 187 kDa HA with agent, 1.25 mg/mouse, at tumor resection site (day 10), vs same biomaterial without agent and vs 15% w/w poloxamer 407"}}, "data": [{"smiles": "Cc1c(C#N)cccc1-c1cc(-c2cn(Cc3cccc(C(C)(C)O)n3)nn2)nc(N)n1", "note": "[AB928, etrumadenant]", "values": [{"measurement": "survival of tumor resection mice", "setting": "[1]", "value": "survived over a longer period of time"}]}, {"smiles": "O=C(c1ccccc1)c1ccc2n1CCC2C(=O)O", "note": "(stereo not shown) [Ketorolac]", "values": [{"measurement": "survival of tumor resection mice", "setting": "FIG. 2A: 10% w/w poloxamer 407 + 3% w/w 187 kDa HA with agent, 6 mg/mouse, at tumor resection site, vs same biomaterial without agent and vs 15% w/w poloxamer 407", "value": "survived over a longer period of time"}, {"measurement": "survival of tumor resection mice", "setting": "FIG. 2B: 10% w/w poloxamer 407 + 3% w/w 187 kDa HA with agent, 9 mg/mouse, at tumor resection site, vs same biomaterial without agent and vs 15% w/w poloxamer 407", "value": "survived over a longer period of time"}, {"measurement": "survival of tumor resection mice", "setting": "FIG. 3: 9% w/w poloxamer 407 + 2.2% w/w 766 kDa HA with agent, 1.2 mg/mouse, at tumor resection site, vs same biomaterial without agent", "value": "survived over a longer period of time"}]}, {"smiles": "c1cc(CN2CCCNCCNCCCNCC2)ccc1CN1CCCNCCNCCCNCC1", "note": "[Plerixafor]", "values": [{"measurement": "survival of tumor resection mice", "setting": "[1]", "value": "survived over a longer period of time"}]}, {"smiles": "CC/C=C\\C[C@H](O)[C@H](O)/C=C/C=C/C=C\\C=C\\[C@@H](O)C/C=C\\CCC(=O)O", "note": "[Resolvin D2]", "values": [{"measurement": "survival of tumor resection mice", "setting": "FIG. 4: 10% w/w poloxamer 407 + 3% w/w 187 kDa HA with agent, 2.5 μg/mouse, at tumor resection site, vs same biomaterial without agent and vs 15% w/w poloxamer 407", "value": "survived over a longer period of time"}]}, {"smiles": "CCCCC(=O)N(Cc1ccc(-c2ccccc2-c2nnn[nH]2)cc1)[C@H](C(=O)O)C(C)C", "note": "[Valsartan]", "values": [{"measurement": "survival of tumor resection mice", "setting": "FIG. 7: 11% w/w poloxamer 407 + 1.8% w/w 766 kDa HA with agent, 1 mg/mouse, at tumor resection site, vs same biomaterial without agent", "value": "survived over a longer period of time"}]}]}
